Our source for the MIC values is US6376522B1, “4-hydroxyisothiazole compounds” (Ciba Specialty Chemicals Corporation, priority 1999, dated 2002).

What all share (assay): Agar incorporation test, MIC
Holding throughout (assay type): cell-based

Assay [1] concerns Staphylococcus hominis DSM 20328. The following applies: DSM20328, Example 3, according to Example 2, read-out: MIC SH = Staphylococcus hominis DSM 20328. The procedure: (§1) An agar incorporation test is carried out to determine the MIC (Minimum Inhibitory Concentration [ppm]) of the compound of formula (101): […]
(§2) The test substances are dissolved in Ethanol, and a dilution series of the compound of the formula […] in agar are prepared.
(§3) Anaerobic bacteria and dermatophytes are cultivated on agar-plates, and washes off with Mueller-Hinton bouillon. Aerobic bacteria are cultivated in Mueller-Hinton bouillon overnight. The test germ suspension are diluted with Mueller-Hinton bouillon to a density of McFarland standard 0.5.
(§4) 10 μl of each germ suspension is dropped onto the agar plates containing the test substance, and the plates are then incubated at 36° C. for 2 to 3 days. (Aerobic bacteria are incubated at 36° C. for 48 hours, anaerobic bacteria are incubated at 30° C. for 72 hours). As controls, the bacterial suspensions are applied to agar plates without test substances. In order to exclude the solvent ethanol having an influence on the growth properties, the bacterial suspensions are applied to agar plates containing ethanol, but without test substance.
(§5) After the plates have been incubated, the growth of the bacteria on the test-substance-containing plates is compared with that of the control plates.

Assay [2] concerns Staphylococcus aureus ATCC 6538. The procedure:
as §1, §2, §3, §4, §5

In assay [3] the test system is Candida albicans ATCC 10231. The following applies: ATCC10231, Example 3, according to Example 2, read-out: MIC CA = Candida albicans ATCC 10231. The protocol:
as §1, §2, §3, §4, §5

The subject of assay [4] is Escherichia coli NCTC 8196. The following applies: NCTC8196, Example 3, according to Example 2, read-out: MIC EC = Escherichia coli NCTC 8196. The protocol: as §1, §2, §3, §4, §5
Assay [5] relates to Aspergillus niger ATCC 6275. Particulars: ATCC6275, Example 3, according to Example 2. The procedure: as §1, §2, §3, §4, §5
Assay [6] concerns Staphylococcus hominis DSM 20330. The following applies: DSM20330, Table 1, 36° C., read-out: MIC (Minimum Inhibitory Concentration) Staphylococcus hominis DSM 20330. The protocol:
as §1, §2, §3, §4, §5

Assay [7] has as its system Corynebacterium xerosis ATCC 373. Particulars: ATCC373, Table 1, 36° C., read-out: MIC (Minimum Inhibitory Concentration) Corynebacterium xerosis ATCC 373. The procedure:
as §1, §2, §3, §4, §5

Setting [8] is: ATCC6538, Example 3, according to Example 2, read-out: MIC SA = Staphylococcus aureus ATCC 6538.

Converted amounts (≈) assume the structure as drawn. Where two headings read alike, the source gives them in different places.

For the compound `Oc1c(-c2ccccc2)nsc1Sc1snc(-c2ccccc2)c1O` [(107)], the MIC in assay [1] and in assay [2] (setting [8]) was 5 µg/mL (≈ 13 µM) each time.

On to `Oc1c(-c2ccccc2)nsc1-c1ccccc1` [(102)], for which the MIC amounted to 50 µg/mL (≈ 197 µM) in assay [3]; 50 µg/mL (≈ 197 µM) in assay [1]; 5 µg/mL (≈ 19.7 µM) in assay [4]; 10 µg/mL (≈ 39.5 µM) in assay [2] (setting [8]); 13 µg/mL (≈ 51.3 µM) in assay [5].

As to `Cc1snc(-c2ccccc2)c1O` [(105)], the MIC in assay [3] was 50 µg/mL (≈ 261 µM); in assay [4], 50 µg/mL (≈ 261 µM); in assay [2] (setting [8]), 50 µg/mL (≈ 261 µM); in assay [5] it was 10 µg/mL (≈ 52.3 µM).

As for `O=C(c1ccc(F)cc1)c1snc(-c2ccc(F)cc2)c1O` [(108)], the MIC in assay [3] was found to be 100 µg/mL (≈ 315 µM).

Take `Oc1csnc1-c1ccccc1` [(103)]: the MIC is 250 µg/mL (≈ 1410 µM) in assay [3], 250 µg/mL (≈ 1410 µM) in assay [4], 50 µg/mL (≈ 282 µM) in assay [2] (setting [8]) and 100 µg/mL (≈ 564 µM) in assay [5].

On to `Oc1c(-c2ccc(F)cc2)nsc1Sc1snc(-c2ccc(F)cc2)c1O` [(109)], for which the MIC in assay [1] amounted to 2 µg/mL (≈ 4.76 µM).

As for `Oc1c(-c2ccccc2)nsc1-c1ccccc1` [(101), 3,5-diphenyl-4-hydroxyisothiazole], the MIC in assay [6] turned out to be 50 µg/mL (≈ 197 µM); in assay [7], 5 µg/mL (≈ 19.7 µM); in assay [2] (ATCC6538, read-out: MIC (Minimum Inhibitory Concentration) Staphylococcus aureus ATCC 6538), 5 µg/mL (≈ 19.7 µM).

On to `Oc1csnc1Cc1ccccc1` [(104)], for which the MIC amounted to 500 µg/mL (≈ 2610 µM) in assay [3], 250 µg/mL (≈ 1310 µM) in assay [4], 50 µg/mL (≈ 261 µM) in assay [2] (setting [8]) and 500 µg/mL (≈ 2610 µM) in assay [5].

`CCc1snc(-c2ccccc2)c1O` [(106)]: the MIC in assay [3] worked out at 500 µg/mL (≈ 2440 µM); in assay [1] it was 500 µg/mL (≈ 2440 µM); in assay [4], 500 µg/mL (≈ 2440 µM); in assay [2] (setting [8]) it was 500 µg/mL (≈ 2440 µM); in assay [5], 100 µg/mL (≈ 487 µM).
